Data set [1] can be described thus: refractive index (Na D-line) (dimensionless). Particulars: 298.15 K; 101.33 kPa; Liquid; Standard Abbe refractometry.
For data set [2] the following is noted: Liquid; for mass density: 303.15 K, 101.33 kPa, Pycnometric method; for vapor or sublimation pressure: Ebulliometric method (Recirculating still).

Numbers after ± are expanded uncertainties.

As to `CC(C)CO` [2-methyl-1-propanol], the refractive index in data set [1] amounted to 1.3939 ± 0.0013. Further, in data set [2], the mass density worked out at 794.34 ± 4.6 kg/m3. For the same compound, the “vapor or sublimation pressure” value in data set [2] (379.35 K) came out at 95.3 ± 2 kPa.

Turning to `CC(C)(C)O` [2-methylpropan-2-ol], the refractive index in data set [1] came to 1.3851 ± 0.0013. In data set [2], the mass density turned out to be 776.16 ± 4.4 kg/m3. The “vapor or sublimation pressure” value in data set [2] (353.95 K) was 95.3 ± 2 kPa.

Take `CC(C)CCO` [3-methylbutan-1-ol]: the refractive index in data set [1] stood at 1.4053 ± 0.0013. Moreover, the mass density in data set [2] is listed as 801.76 ± 4.7 kg/m3. In addition, in data set [2] (401.85 K), the “vapor or sublimation pressure” value was found to be 95.3 ± 2 kPa.

`CN1CCCC1=O` [N-methylpyrrolidone]: the refractive index in data set [1] was 1.4674 ± 0.0008. In addition, the mass density in data set [2] came to 1023.4 ± 0.61 kg/m3. In addition, the “vapor or sublimation pressure” value in data set [2] (473.25 K) is reported as 95.3 ± 1.9 kPa.

On to `CCC(C)O` (stereo not drawn) [butan-2-ol], for which the refractive index in data set [1] amounted to 1.3954 ± 0.0013. Moreover, the mass density in data set [2] amounted to 798.92 ± 4.7 kg/m3. The “vapor or sublimation pressure” value in data set [2] (371.05 K) amounted to 95.3 ± 2 kPa.

For `CC(C)O` [propan-2-ol], in data set [1], the refractive index stood at 1.375 ± 0.0013. Besides, in data set [2], the mass density was found to be 776.88 ± 4.4 kg/m3. Moreover, the “vapor or sublimation pressure” value in data set [2] (353.85 K) came out at 95.3 ± 2 kPa.

What is called refractive index is the speed of light in vacuum divided by its phase velocity in the sample. Usually mass density stands for the mass of a sample divided by its volume. As usually defined, the vapor or sublimation pressure is the equilibrium pressure above the liquid or solid.

(Values after the NIST ThermoML archive (doi:10.1016/j.jct.2008.09.021).)
